Experimental data reported in ChEMBL document CHEMBL4765394, “From irreversible to reversible covalent inhibitors: Harnessing the andrographolide scaffold for anti-inflammatory action” (Eur J Med Chem, 2020).
Activity calls are given as the source filed them. No cut-off for these calls is given here.

Columns and labels:
[1] = Aqueous stability of compound; assay type: physicochemical; details: buffer
[2] = test system: RAW264.7; assay: Antiinflammatory activity in mouse RAW264.7 cells assessed as inhibition of LPS-induced IL6 release at 5 to 10 uM preincubated for 1 hr followed by LPS stimulation and measured after 24 hrs by ELISA; assay type: functional, cell-based; details: dose 5-10 µM, time 25.0 hrs
[3] = test system: RAW264.7; assay: Cytotoxicity against mouse RAW264.7 cells assessed as reduction cell viability at 5 to 50 uM measured after 24 hrs by Celltiter-glo assay; assay type: cell-based; details: raw264.7, 24 h, dose 5-50 µM
[4] = test system: RAW264.7; assay: Antiinflammatory activity in mouse RAW264.7 cells assessed as inhibition of LPS-induced TNFalpha release at 5 to 10 uM preincubated for 1 hr followed by LPS stimulation and measured after 4 hrs by ELISA; assay type: functional, cell-based; details: dose 5-10 µM, time 5.0 hrs
[5] = test system: RAW-Blue; assay: Inhibition of LPS-induced NF-kappaB activity in mouse RAW-Blue cells assessed as reduction in SEAP reporter activity at 5 to 20 uM preincubated for 1 hr followed by LPS stimulation and measured after 8 hrs by SEAP reporter gene assay; assay type: cell-based; details: dose 5-20 µM, time 9.0 hrs
[6] = test system: RAW-Blue; assay: Inhibition of LPS-induced NF-kappaB activity in mouse RAW-Blue cells assessed as reduction in SEAP reporter activity at 5 to 20 uM preincubated for 1 hr followed by LPS stimulation and measured after 24 hrs by SEAP reporter gene assay; assay type: cell-based; details: dose 5-20 µM, time 25.0 hrs
[7] = test system: RAW-Blue; assay: Activation of NF-kappaB activity in mouse RAW-Blue cells assessed as increase in SEAP reporter activity at 5 to 20 uM measured after 24 hrs by SEAP reporter gene assay; assay type: cell-based; details: dose 5-20 µM
[8] = test system: RAW-Blue; assay: Activation of NF-kappaB activity in mouse RAW-Blue cells assessed as increase in SEAP reporter activity at 30 uM measured after 24 hrs in presence of p38 inhibitor SB203580 by SEAP reporter gene assay; assay type: cell-based
[9] = GSH reactivity in PBS assessed as isomerization measured up to 24 hrs by HPLC-MS analysis; assay type: ADME; details: buffer
[10] = GSH reactivity in PBS assessed as GSH adduct formation measured up to 8 hrs by HPLC-MS analysis; assay type: ADME; details: buffer
[11] = GSH reactivity in PBS assessed as GSH adduct formation by measuring half life by HPLC-MS analysis; assay type: ADME
[12] = target: RAC-alpha serine/threonine-protein kinase (Mus musculus) (UniProt P31750); assay: Inhibition of LPS-induced AKT activation in mouse RAW264.7 cells assessed as reduction in AKT phosphorylation measured after 4 hrs by Western blot analysis; assay type: cell-based
[13] = Effect on total AKT expression in LPS-induced mouse RAW264.7 cells at 5 to 20 uM measured after 4 hrs by Western blot analysis; details: raw264.7, 4 h, dose 5-20 µM
[14] = target: T1, Mitogen-activated protein kinase 1 and 3 (ERK2 and ERK1) (Mus musculus) (UniProt P63085+Q63844); assay: Inhibition of LPS-induced ERK1/2 activation in mouse RAW264.7 cells assessed as reduction in ERK1/2 phosphorylation at 20 uM measured after 4 hrs by Western blot analysis; assay type: cell-based
[15] = target: T2, Nuclear factor NF-kappa-B p105 subunit (Homo sapiens) (UniProt P19838); assay: Inhibition of DNA binding activity of human NF-kappaB p50 measured after 1 hr by ELISA
T2 sequence (whole entry): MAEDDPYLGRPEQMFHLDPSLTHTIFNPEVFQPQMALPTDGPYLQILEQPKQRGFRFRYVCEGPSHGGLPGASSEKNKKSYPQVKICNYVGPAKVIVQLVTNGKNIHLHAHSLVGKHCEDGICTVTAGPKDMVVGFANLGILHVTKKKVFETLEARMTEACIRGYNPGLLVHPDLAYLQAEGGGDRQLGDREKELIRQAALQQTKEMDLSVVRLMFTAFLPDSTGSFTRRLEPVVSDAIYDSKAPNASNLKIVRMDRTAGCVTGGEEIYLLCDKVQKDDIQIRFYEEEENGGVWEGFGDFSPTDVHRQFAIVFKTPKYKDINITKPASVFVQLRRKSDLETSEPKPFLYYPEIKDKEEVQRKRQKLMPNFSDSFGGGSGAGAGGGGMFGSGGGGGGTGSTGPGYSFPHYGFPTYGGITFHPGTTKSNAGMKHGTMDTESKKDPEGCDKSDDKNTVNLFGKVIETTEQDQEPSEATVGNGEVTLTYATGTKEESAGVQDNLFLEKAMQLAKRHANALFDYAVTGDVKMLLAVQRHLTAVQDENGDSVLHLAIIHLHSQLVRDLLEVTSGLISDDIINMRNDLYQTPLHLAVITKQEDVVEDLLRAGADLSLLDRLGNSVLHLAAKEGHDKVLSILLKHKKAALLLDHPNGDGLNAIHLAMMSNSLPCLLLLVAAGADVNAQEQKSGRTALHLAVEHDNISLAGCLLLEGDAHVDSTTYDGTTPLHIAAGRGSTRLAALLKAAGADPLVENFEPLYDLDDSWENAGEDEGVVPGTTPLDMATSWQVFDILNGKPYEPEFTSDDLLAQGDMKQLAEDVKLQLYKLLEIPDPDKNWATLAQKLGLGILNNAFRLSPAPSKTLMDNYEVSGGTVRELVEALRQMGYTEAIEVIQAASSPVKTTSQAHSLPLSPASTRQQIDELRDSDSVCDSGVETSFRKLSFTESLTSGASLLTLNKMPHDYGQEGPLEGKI

[16] = target: T2, Nuclear factor NF-kappa-B p105 subunit (Homo sapiens); assay: Binding affinity to human NF-kappaB p50 assessed as compound-adduct formation by MALDI-TOF analysis
[17] = Cytotoxicity against human L02 cells assessed as reduction in cell viability measured after 24 hrs by Celltiter-glo assay; assay type: cell-based
[18] = Cytotoxicity against HEK293 cells assessed as reduction in cell viability measured after 24 hrs by Celltiter-glo assay; assay type: cell-based; details: human
[19] = test system: Mus musculus; assay: Antiinflammatory activity in LPS-induced BALB/c mouse model of acute lung injury assessed as reduction in total cell count at 1 mg/kg, ip administered twice daily for 4 days starting 1 hr post LPS challenge by differential staining based flow cytometry relative to control; assay type: functional; design: scale not given: the % may be the effect or the level left; details: time 4 day
[20] = test system: Mus musculus; assay: Antiinflammatory activity in LPS-induced BALB/c mouse model of acute lung injury assessed as reduction in neutrophil cell count at 1 mg/kg, ip administered twice daily for 4 days starting 1 hr post LPS challenge by differential staining based flow cytometry relative to control; assay type: functional; design: scale not given: the % may be the effect or the level left; details: time 4 day
[21] = test system: Mus musculus; assay: Antiinflammatory activity in ip dosed LPS-induced BALB/c mouse model of acute lung injury assessed as reduction in total cell count administered twice daily for 4 days starting 1 hr post LPS challenge by differential staining based flow cytometry; assay type: functional, organism-based; details: time 4.0 day
[22] = test system: Mus musculus; assay: Antiinflammatory activity in ip dosed LPS-induced BALB/c mouse model of acute lung injury assessed as reduction in neutrophil cell count administered twice daily for 4 days starting 1 hr post LPS challenge by differential staining based flow cytometry; assay type: functional, organism-based; details: time 4.0 day
[23] = test system: RAW264.7; assay: Activation of JNK phosphorylation in mouse RAW264.7 cells at 50 uM measured after 4 hrs by Western blot analysis; assay type: cell-based
[24] = test system: RAW264.7; assay: Activation of JNK phosphorylation in BSO-treated mouse RAW264.7 cells at 50 uM measured after 4 hrs by Western blot analysis
[25] = target: T1, Mitogen-activated protein kinase 1 and 3 (ERK2 and ERK1) (Mus musculus); assay: Inhibition of LPS-induced ERK1/2 activation in BSO-treated mouse RAW264.7 cells assessed as reduction in ERK1/2 phosphorylation at 10 uM preincubated for 1 hr followed by LPS-stimulation measured after 4 hrs by Western blot analysis; details: time 5.0 hrs
[26] = target: RAC-alpha serine/threonine-protein kinase (Mus musculus) (UniProt P31750); assay: Inhibition of LPS-induced AKT activation in BSO-treated mouse RAW264.7 cells assessed as reduction in AKT phosphorylation at 10 uM preincubated for 1 hr followed by LPS-stimulation measured after 4 hrs by Western blot analysis; details: time 5.0 hrs
[27] = test system: RAW264.7; assay: Antiinflammatory activity in 2 hrs NAC-pretreated mouse RAW264.7 cells assessed as inhibition of LPS-induced TNFalpha release at 10 uM preincubated for 1 hr followed by LPS stimulation and measured after 4 hrs by ELISA relative to control; assay type: functional; details: time 5 hrs
[28] = test system: RAW264.7; assay: Antiinflammatory activity in 4 hrs NAC-pretreated mouse RAW264.7 cells assessed as inhibition of LPS-induced TNFalpha release at 10 uM preincubated for 1 hr followed by LPS stimulation and measured after 4 hrs by ELISA relative to control; assay type: functional; details: time 5 hrs
[29] = test system: RAW264.7; assay: Antiinflammatory activity in 24 hrs NAC-pretreated mouse RAW264.7 cells assessed as inhibition of LPS-induced TNFalpha release at 10 uM preincubated for 1 hr followed by LPS stimulation and measured after 4 hrs by ELISA relative to control; assay type: functional; details: time 5 hrs

T1 sequence (P63085 whole entry, looked up): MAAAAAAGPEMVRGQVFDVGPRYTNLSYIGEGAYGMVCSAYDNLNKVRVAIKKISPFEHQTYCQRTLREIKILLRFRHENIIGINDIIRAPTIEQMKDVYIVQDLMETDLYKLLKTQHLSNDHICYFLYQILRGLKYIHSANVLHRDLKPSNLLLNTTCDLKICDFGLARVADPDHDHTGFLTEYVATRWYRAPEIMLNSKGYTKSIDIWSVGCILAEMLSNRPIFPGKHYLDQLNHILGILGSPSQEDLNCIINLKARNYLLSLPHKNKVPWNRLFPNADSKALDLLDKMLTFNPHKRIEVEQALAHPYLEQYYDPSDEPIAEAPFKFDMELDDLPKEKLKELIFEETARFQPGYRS
T1 sequence (Q63844 whole entry, looked up): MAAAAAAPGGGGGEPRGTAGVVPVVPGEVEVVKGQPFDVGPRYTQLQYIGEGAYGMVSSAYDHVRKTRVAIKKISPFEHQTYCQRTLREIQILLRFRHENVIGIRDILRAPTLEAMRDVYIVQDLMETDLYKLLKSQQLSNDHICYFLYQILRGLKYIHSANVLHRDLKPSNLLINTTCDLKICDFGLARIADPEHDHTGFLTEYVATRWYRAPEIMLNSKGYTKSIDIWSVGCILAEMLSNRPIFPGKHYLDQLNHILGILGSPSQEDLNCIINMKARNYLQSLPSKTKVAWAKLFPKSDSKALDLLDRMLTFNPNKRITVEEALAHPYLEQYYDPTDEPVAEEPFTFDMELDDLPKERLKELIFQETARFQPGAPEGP
Sequence of RAC-alpha serine/threonine-protein kinase (Mus musculus) (P31750 whole entry): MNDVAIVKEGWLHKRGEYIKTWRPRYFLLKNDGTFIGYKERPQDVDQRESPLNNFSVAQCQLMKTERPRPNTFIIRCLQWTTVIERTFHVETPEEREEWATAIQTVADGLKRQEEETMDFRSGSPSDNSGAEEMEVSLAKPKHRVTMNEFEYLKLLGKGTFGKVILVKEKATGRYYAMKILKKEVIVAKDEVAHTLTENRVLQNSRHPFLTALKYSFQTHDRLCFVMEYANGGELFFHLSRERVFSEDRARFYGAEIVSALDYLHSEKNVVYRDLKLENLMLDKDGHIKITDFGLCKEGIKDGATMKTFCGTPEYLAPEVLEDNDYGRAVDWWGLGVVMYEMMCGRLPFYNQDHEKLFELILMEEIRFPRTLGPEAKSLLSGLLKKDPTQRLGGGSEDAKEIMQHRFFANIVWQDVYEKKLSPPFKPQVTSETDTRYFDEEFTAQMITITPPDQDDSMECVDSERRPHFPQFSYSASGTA

With C=C1CC[C@@H]2[C@](C)(CO)[C@H](O)CC[C@@]2(C)[C@@H]1C/C=C/C(C)=O the Stabilty [1] was “Stable”, the inhibition [2] was “Active” and the Activity [3] was “Toxic”. The inhibition [4] was “Active”, the inhibition [5] was “Active” and the inhibition [6] was “Active”. The Activity [7] was “inactive”, the Activity [8] was “inactive” and the Drug metabolism [9] was “Metabolite_Notdetected”. For the same compound, the K [10] was 2.11e-05 M⁻¹ s⁻¹, the t1/2 [11] was 6.47 h and the inhibition [12] was “Dose-dependent effect”. For the same compound, the Activity [13] was “Non-Toxic”, the inhibition [14] was “Active” and the inhibition [15] was “Dose-dependent effect”. For the same compound, the Activity [16] was “Active”, the CC50 at 24 h [17] was 30.1 µM and the CC50 at 24 h [18] was 67 µM. For the same compound, the Activity [19] was over 30%, the Activity [20] was over 30% and the Activity [21] was “Dose-dependent effect”. For the same compound, the Activity [22] was “Dose-dependent effect”, the Activity [23] was “inactive” and the Activity [24] was “inactive”. For the same compound, the inhibition [25] was “Active”, the inhibition [26] was “Active” and the inhibition at 10 µM [27] was 12%. For the same compound, the inhibition at 10 µM [28] was 23% and the inhibition at 10 µM [29] was 51%.
